Laboratory results taken from paper PMC5773487, “Harnessing insulin- and leptin-induced oxidation of PTP1B for therapeutic development” (Nature Communications, 2018).
Where “and” joins values, the source holds several entries; their conditions need not be identical. Equal values may be shown once. Entries after “also recorded” stand apart in the source; their conditions may differ. Read-outs that look alike come from different tables or passages of the source.

T1: reduced PTP1B (Homo sapiens, UniProt P18031)
T1 construct: Purified PTP1B (1–321) (100 nM) was mixed with increasing concentrations of H2O2; 6xHis (C); made in house; host or cells: E. coli BL21 (DE3)-RIL
T1 sequence (P18031 1-321): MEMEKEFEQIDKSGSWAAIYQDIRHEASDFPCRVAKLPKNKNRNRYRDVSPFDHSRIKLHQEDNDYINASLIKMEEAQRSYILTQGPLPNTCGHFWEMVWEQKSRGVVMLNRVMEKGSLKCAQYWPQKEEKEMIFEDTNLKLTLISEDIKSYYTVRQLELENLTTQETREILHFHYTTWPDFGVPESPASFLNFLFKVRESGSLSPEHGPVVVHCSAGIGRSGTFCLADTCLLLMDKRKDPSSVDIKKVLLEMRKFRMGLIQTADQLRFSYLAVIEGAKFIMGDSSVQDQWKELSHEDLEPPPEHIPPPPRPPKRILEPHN

T2: PTP1B-CASA-mut2 (Homo sapiens, UniProt P18031, C215A/K39E/K41R/L37F/S216A)
T2 construct: PTP1B (1–321) and TCPTP (1–317) cloned in pET21b vector were used as templates; made in house; host or cells: E. coli BL21 (DE3)-RIL
T2 sequence (P18031 1-321 L37F/K39E/K41R/C215A/S216A limits assumed): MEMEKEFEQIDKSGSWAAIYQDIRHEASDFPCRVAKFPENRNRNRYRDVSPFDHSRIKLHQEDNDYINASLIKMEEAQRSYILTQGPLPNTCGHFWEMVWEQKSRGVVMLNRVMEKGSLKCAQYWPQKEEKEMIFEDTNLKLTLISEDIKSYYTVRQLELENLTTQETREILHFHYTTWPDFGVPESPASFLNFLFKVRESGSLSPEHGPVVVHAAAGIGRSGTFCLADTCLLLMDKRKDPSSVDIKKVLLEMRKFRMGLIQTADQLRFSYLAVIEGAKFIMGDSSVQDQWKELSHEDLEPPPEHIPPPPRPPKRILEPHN

T3: PTP1B-CASA (Homo sapiens, UniProt P18031, C215A/S216A)
T3 construct: PTP1B (1–321) and TCPTP (1–317) cloned in pET21b vector were used as templates; 6xHis (C); made in house; host or cells: E. coli BL21 (DE3)-RIL
T3 sequence (P18031 1-321 C215A/S216A limits assumed): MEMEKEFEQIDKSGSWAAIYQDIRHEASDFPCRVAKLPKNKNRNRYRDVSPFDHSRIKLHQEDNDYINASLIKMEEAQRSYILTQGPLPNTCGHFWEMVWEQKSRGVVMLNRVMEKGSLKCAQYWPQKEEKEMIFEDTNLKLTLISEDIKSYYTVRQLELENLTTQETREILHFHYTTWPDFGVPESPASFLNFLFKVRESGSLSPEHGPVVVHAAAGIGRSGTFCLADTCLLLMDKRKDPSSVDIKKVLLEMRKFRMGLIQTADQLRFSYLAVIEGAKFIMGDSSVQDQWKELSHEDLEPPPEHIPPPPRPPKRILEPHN

B1: scFv45: recombinant conformation-sensor single-chain variable fragment antibody recognizing oxidized PTP1B (antibody, V domains shown)
VH: TVTLDESGGGLQAPGGALSLVCKASGFTFSSYDMGWIRQAPGKGLEYVAGITDNGRYASYGSAVDGRATISRDNGQSSVRLQLNNLRAEDTGTYYCARDDGSGWTGNSIDAWGHGTEVIVSE
VL: ALTQPSSVSANPGGTVKITCSGSSSAYGYGWYQQKSPGSAPVTVIYNNNKRPSNIPSRFSGSKSGSTGTLTITGVQAEDEAVYFCGSEDSSTDAIFGAGTTLTVL

Experiments:
reduced PTP1B = molecular target: T1, reduced PTP1B; test: phosphatase activity of reduced PTP1B, DiFMUP substrate; type: biochemical
Description: Fig. 4 Identification and characterization of small molecules that mimic the effect of scFv45. a Reversibly oxidized PTP1B (PTP1B-OX) was generated by incubation with H2O2 in vitro, desalted, then assayed (20 nM) in the presence and absence of individual members of the LOPAC library. In the right panel, each dot represents an activity measurement. […] Data are representative of at least two independent experiments (n = 2). b Increasing concentration of sanguinarine was tested against reduced (circle) and oxidized (square) forms of PTP1B, using DiFMUP as substrate. c Increasing concentration of levamisole was tested against reduced (circle) and oxidized (square) PTP1B, using DiFMUP as substrate. d PTP1B-OX (200 nM) was incubated with sanguinarine (25 µM) for 5 min and the complex was diluted 100-fold and the activity was monitored for 120 min continuously. e PTP1B-OX (200 nM) was incubated with levamisole (40 µM) for 5 min and the complex was diluted 100-fold and the activity was monitored for 120 min continuously. f Increasing concentration of chelerythrine, an analog of sanguinarine, was tested against reduced (circle) and oxidized (square) forms of PTP1B, using DiFMUP as substrate. […] Individual data points represent the mean obtained from three separate experiments (n = 3; b–g)
Purified PTP1B (1–321) (100 nM) was mixed with increasing concentrations of H2O2 (0.05–100 mM) in phosphatase assay buffer (50 mM HEPES, pH 7.0, 100 mM NaCl, 0.1% BSA) at room temperature for 5 min. From this reaction mixture PTP1B (10 nM) was used to monitor phosphatase activity using DiFMUP as the substrate, with or without 5 mM TCEP. Activity of each sample was compared to that of the untreated PTP1B in the presence of 5 mM TCEP.

PTP1B-CASA-mut2 = molecular target: T2, PTP1B-CASA-mut2; test: isothermal titration calorimetry; type: binding; details: two independent experiments
Description: (§1) The studies were performed using a VP-ITC system from GE Healthcare. All titrations were performed at 25°C in de-gassed buffer (50 mM HEPES pH 7.0, 100 mM NaCl, 2 % DMSO, and 1 mM TCEP). The protein concentrations of PTP1B-CASA and PTP1B-CASA-mut2 were each 50 μM. Protein samples used in ITC were dialyzed completely against the buffer. Inhibitor (10 mM) in DMSO was diluted to make a stock solution of 0.2 mM in de-gassed buffer, which was then used as titrant in the syringe. The instrument was calibrated by using the heat of dilution of NaCl in water. […] The heat of ligand dilution was corrected by subtracting the average heat of injection after saturation. Origin software was used to fit and analyze the data.

PTP1B-CASA = molecular target: T3, PTP1B-CASA; test: isothermal titration calorimetry; type: binding; details: 25°C
Description: as §1

reduced form of PTP1B = test system: reduced form of PTP1B; set-up: method as in PMID 21962515; details: cited from earlier work

Molecule	inhibition of the reduced form of PTP1B (reduced PTP1B)	binding to PTP1B-CASA-mut2 by ITC (PTP1B-CASA-mut2)	Kd (PTP1B-CASA; read-out: binding constant for PTP1B-CASA by ITC) [µM]	Kd (PTP1B-CASA; independent experiments, read-out: affinity for PTP1B-CASA by ITC)	binding to the reduced form of PTP1B (reduced form of PTP1B)
COc1ccc2c(c[n+](C)c3c4cc5c(cc4ccc23)OCO5)c1OC [chelerythrine]	no apparent inhibition; also recorded: did not inhibit	No apparent binding; also recorded: did not detect saturable binding	3	3.25 µM and 2.83 µM and 3.44 µM	
CN1CCc2cc3c(cc2C(=O)Cc2ccc4c(c2C1)OCO4)OCO3 [protopine]	did not inhibit; also recorded: ineffective				
B1					did not bind
